Measured values published in patent US10363239B2, “Method for inhibiting growth of cancer cells” (Pain Therapeutics, Inc., priority 2013, dated 2019).

What was measured:
[1] = system: non-small cell lung cancer cell lines; experiment: Glucose utilization; type: cell-based, human; conditions: data not shown
Experimental: To determine the effect of Compound C0105 on glucose utilization, the cancer and primary normal cells were plated extremely thinly (10%). Once cells attached, Compound C0105 was added at 0.1, 0.5, 1 or 5 nM in the medium twice daily (6 hours apart) for 4 days. The cells were serum-deprived (glucose deprived) for 2 hours. Cells were then rinsed with 1 ml PBS and glucose uptake was assessed by contacting the cells with [^3H]glucose (0.01 uCi/l ml) in Kreb's Ringer for 2 hours. Cells were then rinsed with 1 ml PBS 3 times, scraped off and their glucose content counted by liquid scintillation spectrophotometry.
. Primary lung fibroblast cells were used as control, non-cancerous cells to illustrate the difference in effects observed (FIG. 1C, FIGS. 1H-1I).

MiaPaCa2 cell implants = experiment: Xenograft survival study; type: in vivo, Nu/Nu mice; conditions: 100 mg/kg
Experimental: FIGS. 34A and 34B illustrate Kaplan-Meier survival curves (FIG. 34A) and averaged tumor volumes (FIG. 34B) in a xenograft study in which MiaPaCa2 cells were implanted in Nu/Nu mice. […] FIG. 34B illustrates average tumor volumes (mm3) in mice treated with vehicle alone (black diamonds), gemcitabine (open squares), Compound C0105 at 10 mg/kg (black triangles) and Compound C0105 at 100 mg/kg (open diamonds).
Mice were monitored individually and the treatment effect was compared to each mouse's own original tumor on the treatment day 0. The endpoint of the study was a tumor volume of 1500 mm^3 or 45 days, whichever comes first. The animals were euthanized when the endpoint was reached. Responders were followed longer (survival study). The Table below illustrates the drug treatment administered to the mice.
A third xenograft study was designed to measure survival rather than tumor volume at a designated time point.

[2] = system: FLNA-bound K-ras and ras-GAP in MiaPaCa2 cells; experiment: FLNA-bound K-ras and ras-GAP (immunoprecipitation, Western blotting); type: cell-based, human; conditions: 0.1, 0.5, 1 and 5 nM
Experimental: (§1) Thus, melanoma, two different pancreatic cancerous cell lines (MiaPaCa2 and BxPc3) and a glioblastoma cell line (U87) were treated with zero (vehicle), 0.1, 0.5, 1 and 5 nM Compound C0105 as previously discussed, and FLNA-bound K-ras and ras-GAP were immunoprecipitated, separated by Western blotting and the blot densities determined as discussed previously.
(§2) To study the effect of Compound C0105 on pS^2152FLNA levels, FLNA linkages to key regulators including protein phosphatases as well as activated Akt (pS^473-, pT^308-Akt), mTOR ([…]) and ERK (pY/pT-ERK) levels, the cancer and normal cells were cultured to approximately 90% confluency and treated with vehicle or varying concentrations of Compound C0105. The cells were washed with warm phosphate-buffered saline (PBS), pH 7.2, dissociated, homogenized by sonication and solubilized using 0.5% NP-40 (nonoxynol 40), 0.2% sodium cholate and 0.5% digitonin for 1 hour at 4° C.
(§3) The cell lysates were diluted 5-fold with immunoprecipitation buffer and immunoprecipitated with anti-FLNA, -Akt, -mTOR and -ERK2 as described previously [Talbot et al., J Clin Inv 122(4):1-23 (2012); Wang et al., J Neurosci 32(29):9773-9784 (2012)]. The levels of FLNA linkages, activated phosphorylated Akt (pS^473 and pT^308), phosphorylated mTOR (pS^2448) and phosphorylated ERK2 (pY/pT) were determined in anti-FLNA, -Akt, -mTOR and -ERK2 immunoprecipitates by Western blotting with appropriate antibodies directed against PTEN, PP2A, K-RAS, ras-GAP (FLNA linkages), pS^473Akt, pT^308Akt, pS^2448mTOR and pY/pT ERK2 (activation of Akt, mTOR and ERK2).

[3] = system: FLNA-bound K-ras and ras-GAP in BxPc3 cells; experiment: as above; type: cell-based, human; conditions: 0.1, 0.5, 1 and 5 nM
Experimental: as §1, §2, §3

[4] = system: FLNA-bound K-ras and ras-GAP in glioblastoma cell line (U87); experiment: as above; type: cell-based, human; conditions: 0.1, 0.5, 1 and 5 nM
Experimental: as §1, §2, §3

[5] = system: FLNA-bound K-ras and ras-GAP in melanoma cells; experiment: as above; type: cell-based, human; conditions: 0.1, 0.5, 1 and 5 nM
Experimental: as §1, §2, §3

[6] = system: small-cell lung carcinoma cells; experiment: Cell proliferation by cell-cycling markers Ki67 and PCNA (Western blots); type: cell-based, human; conditions: 0.1-5 nM; 4 days

## CN1CCC2(CC1)NCC(=O)N2Cc1ccccc1 [Compound C0105]
[1]
  Glucose utilization: decreased the elevated glucose utilization
MiaPaCa2 cell implants
  Tumors shrunk to undetectable: completely shrunk tumors to being undetectable in three high-dose (100 mg/kg) mice
MiaPaCa2 cell implants; mouse found dead at 30 days
  Tumor shrinkage compared to mice receiving vehicle: more than 90%
[2]
  FLNA-bound K-ras: reduces K-ras
  FLNA-bound Ras-GAP: increases Ras-GAP
[3]
  FLNA-bound K-ras: reduces K-ras
  FLNA-bound Ras-GAP: increases Ras-GAP
[4]
  FLNA-bound K-ras: reduces K-ras
  FLNA-bound Ras-GAP: increases Ras-GAP
[5]
  FLNA-bound K-ras: reduces K-ras
  FLNA-bound Ras-GAP: increases Ras-GAP
[6]
  Cell proliferation (Ki67 and PCNA levels): reduces cell proliferation
